Patent US20100130450A1, “Methods of Treating Fungal Infections” (NORTHEASTERN UNIVERSITY, priority 2007, published 2010)
“Also recorded” adds a separate entry of the source.

Assays:
[1] = system: C. albicans 3153A planktonic cultures; test: Killing of exponentially growing and stationary planktonic cultures, CFU; assay type: cell-based, Candida albicans; conditions: antifungal added for 24 hrs
Procedure: (§1) Biofilms of C. albicans 3153A cells were cultured in wells of microtiter plates in RPMI medium for 48 hrs (Ramage et al., Antimicrob. Agents Chemother. 45:2475-2479 (2001)), washed twice in PBS pH 7.4 to remove nonadherent cells, and resuspended in 100 μl RPMI growth medium containing antifungals. After 24 hrs of antifungal challenge, the biofilms and cultures were washed twice, resuspended in 100 μl PBS, scraped, transferred into eppendorf tubes, vortexed and plated for colony forming unit (CFU) determination on YPD medium. […] This could lead to an underestimation of surviving cells by a factor of ≦10. In parallel, exponentially growing and stationary planktonic cultures were grown for 48 hrs in RPMI medium, and then antifungals were added for 24 hrs. The experiment was performed in triplicate and error bars indicate standard deviation (see FIG. 1).

[2] = system: Biofilms of C. albicans 3153A cells; test: C. albicans biofilm killing by antifungals, CFU determination; assay type: cell-based, Candida albicans; conditions: for shape of biofilm killing curve: dose-dependent
Procedure: Biofilms of C. albicans 3153A cells were cultured in wells of microtiter plates in RPMI medium for 48 hrs (Ramage et al., Antimicrob. Agents Chemother. 45:2475-2479 (2001)), washed twice in PBS pH 7.4 to remove nonadherent cells, and resuspended in 100 μl RPMI growth medium containing antifungals. After 24 hrs of antifungal challenge, the biofilms and cultures were washed twice, resuspended in 100 μl PBS, scraped, transferred into eppendorf tubes, vortexed and plated for colony forming unit (CFU) determination on YPD medium. […] In parallel, exponentially growing and stationary planktonic cultures were grown for 48 hrs in RPMI medium, and then antifungals were added for 24 hrs. The experiment was performed in triplicate and error bars indicate standard deviation (see FIG. 1).
Biofilms were grown in microtiter plates and were treated with amphotericin B or chlorhexidine (100 μg/ml) for 24 hrs, after which they were washed and vortexed, as discussed above. The cells were then reinoculated into microtiter plates to form new biofilms. The new biofilms, derived from persisters that survived drug treatment, were again treated with the antifungal agents (as discussed above), and the procedure was repeated a total of 3 times. Biofilms were sampled for CFU determination before and after antifungal treatment. The experiment was performed in triplicate.
Tests were also performed to determine if yeast persisters were multidrug tolerant. Mature, 48 hr biofilms of C. albicans were challenged for 24 hrs with 100 μg/ml amphotericin B, 100 μg/ml chlorhexidine, or a combination of these two antifungal agents, using the same procedures discussed above. Biofilms were washed and sampled for CFU determination before and after antifungal treatment, as discussed above.

[3] = system: Mature biofilms of wild type C. albicans; test: Potentiation of biofilm killing by miconazole, CFU analysis; assay type: cell-based, Candida albicans; conditions: for biofilm killing by the compound alone (CFU): alone: 100 μg/ml miconazole or 200 μg/ml hit compound
Procedure: Next, the same checkerboard assay was repeated to test the ability of the hit compounds to potentiate biofilm killing by miconazole. Mature biofilms of wild type C. albicans were challenged with 100 μg/ml miconazole, 200 μg/ml of the hit compound, or a combination of the two for 24 hrs. Biofilms were then washed, scraped, resuspended in PBS, vortexed for 30 seconds and plated for CFU analysis.

[4] = system: Candida albicans strain CAF4-2 biofilms; assay type: cell-based; conditions: for inhibition of metabolic activity by the compound alone (XTT): any concentration tested
Procedure: Specifically, a screen was developed using C. albicans cells treated with miconazole at subinhibitory concentrations, to which candidate potentiator compounds were added. […] In order to make the screen compatible with high-throughput approaches, biofilms were grown in microtiter plates and the reduction of a vital dye XTT, commonly used to monitor yeast viability, was used as the quantitative readout.
Microtiter plate wells were seeded with wild type Candida albicans strain CAF4-2. Biofilms were grown for 48 hrs at 37° C., washed with PBS pH 7.4, and resuspended in a final volume of 100 μl RPMI containing 10 μg/ml miconazole. Individual compounds from ChemBridge DiverSet E (ChemBridge Corp., San Diego, Calif.) were then added at 10 μg/ml to the wells. Plates were incubated for 24 hrs and XTT (Sigma-X4751) was added at 1 mg/ml to each well. After 4 hrs of incubation at 37° C., reduction of XTT was monitored by recording the optical density at 690 nm (subtracted from OD450) with a microtiter plate reader. Hits were identified when XTT reduction was inhibited by more than 30% of the control values.
A checkerboard assay was then performed to examine possible synergy between miconazole and the hits. 100 μg/ml miconazole (2× dilution in each subsequent well, y-axis) and 100 μg/ml compound AC9 (2× dilution, x-axis) were added to mature 48 hr wild type C. albicans biofilms and incubated for an additional 24 hrs in the presence of the drugs. XTT was added to each well at 1 mg/ml and biofilms were incubated at 37° C. for an additional 4 hrs.
As described in Example 2, initially 5,000 compounds of the 16,000 from the ChemBridge library were screened for potentiators of miconazole action against C. albicans biofilms. A larger screen is conducted on the remaining 11,000 compounds from the ChemBridge library. Screening is performed as described in Example 2 using 96-well plates. Candida biofilms are formed by growing cells for 48 hrs at 37° C. in a shaking incubator in 96-well microtiter plates according to standard protocol (Ramage et al., Antimicrob. Agents Chemother. 45:2475-2479 (2001)). […] 10 μg/ml miconazole is added to each well and 10 μg/ml of unique compounds is added to rows 2-11 and the plates are incubated for 24 hrs at 37° C. XTT is then added to each well at 1 mg/ml and the plates are incubated for an additional 4 hrs at 37° C. The amount of XTT converted to dye is quantified with a plate reader by subtracting the optical density at 690 nm from the optical density at 450 nm. […] Positive hits are scored when the optical density of the experimental well is <0.7.

[5] = mouse; cited from earlier work
[6] = system: C. albicans; test: MIC; assay type: cell-based, Candida albicans
[7] = system: biofilm-deficient strains of C. albicans; test: Persister formation by biofilm-deficient strains (survival to high levels of amphotericin B); assay type: cell-based, Candida albicans
Procedure: as §1
Given that persisters appeared only in the biofilm, their formation was dependent on the same genes/pathways that determine biofilm development. A large panel of biofilm-defective mutants was therefore tested for their ability to produce persisters by measuring survival to high levels of amphotericin B. These mutants were able to adhere to the surface of a microtiter plate, making it possible to assay in the biofilm survival protocol described above. Unexpectedly, all strains appeared to produce essentially normal levels of persisters (Table 1).

SMILES: [H]/N=C(\N/C(=N/[H])NCCCCCCNC(=N)NC(=N)Nc1ccc(Cl)cc1)Nc1ccc(Cl)cc1 [chlorhexidine]
- killing of exponentially growing and stationary planktonic cells [1]: eliminated
- concentration at which killing of persisters was observed ([2]; 24 hrs challenge): above 100 μg/ml
- concentration at which the biofilm was completely sterilized ([2]; 24 hrs challenge): 1000 µg/mL
- shape of biofilm killing curve ([2]; 24 hrs challenge, CFU): biphasic killing

SMILES: CC[C@H](C)C[C@H](C)CCCCCCCCC(=O)N[C@H]1C[C@@H](O)[C@@H](NCCN)NC(=O)[C@@H]2[C@@H](O)CCN2C(=O)[C@H]([C@H](O)CCN)NC(=O)[C@H]([C@H](O)[C@@H](O)c2ccc(O)cc2)NC(=O)[C@@H]2C[C@@H](O)CN2C(=O)[C@H]([C@@H](C)O)NC1=O [Caspofungin, caspofungin]
- killing of biofilms ([2]; 48 hr biofilm, 24 hrs antifungal challenge, CFU): ≤ 10 fold

SMILES: Oc1c(/N=N/c2ccccn2)ccc2ccccc12 [AC9]
- biofilm killing in the presence of miconazole (CFU) ([3]; 100 μg/ml miconazole + 200 μg/ml compound, 24 hrs): Complete eradication; also recorded: completely eradicated
- biofilm killing by the compound alone (CFU) ([3]; 24 hrs): Neither miconazole nor AC9 alone had any killing activity
- minimal concentration at which the compound potentiates complete killing of C. albicans by miconazole ([3]; with miconazole): 100 µg/mL
- calculated OD value (OD450 minus OD690) of the positive control ([4]; AC9 at 10 μg/ml plus 10 μg/ml miconazole, negative control >1): 0.4
- inhibition of metabolic activity by the compound alone (XTT) [4]: Neither miconazole nor AC9 alone inhibited metabolic activity
- lowest concentration with inhibition of metabolic activity (XTT checkerboard) ([4]; in the presence of 12.5 μg/ml miconazole, 48 hr biofilm, 24 hrs): 3.1 µg/mL
- synergy with miconazole (XTT checkerboard) ([4]; up to 100 μg/ml each, 2x dilutions): clear synergy
- rank among the hits in the XTT reduction inhibition checkerboard assay ([4]; with miconazole): most active compound among the hits

SMILES: Clc1ccc(COC(Cn2ccnc2)c2ccc(Cl)cc2Cl)c(Cl)c1 (stereo not shown) [miconazole]
- LD50 [5]: 519 mg/kg
- MIC of logarithmically growing cells [6]: 0.03 μg/ml
- biofilm killing by the compound alone (CFU) ([3]; 24 hrs): Neither miconazole nor AC9 alone had any killing activity
- inhibition of metabolic activity by the compound alone (XTT) [4]: Neither miconazole nor AC9 alone inhibited metabolic activity
- XTT reduction by biofilm ([4]; miconazole alone at 10 μg/ml, 24 hrs): indistinguishable from biofilms with no miconazole

SMILES: C[C@@H]1[C@H](O)[C@@H](C)/C=C/C=C/C=C/C=C/C=C/C=C/C=C/[C@H](O[C@@H]2O[C@H](C)[C@@H](O)[C@H](N)[C@@H]2O)C[C@@H]2O[C@](O)(C[C@@H](O)C[C@@H](O)[C@H](O)CC[C@@H](O)C[C@@H](O)CC(=O)O[C@H]1C)C[C@H](O)[C@H]2C(=O)O [amphotericin B]
- killing of exponentially growing and stationary planktonic cells [1]: effectively killed exponentially growing and stationary cells
- Persisters ([7]; strain 3153A): +++^1 (1-2% survival)
- Persisters ([7]; strain CAI4): +^3 (0.05-0.1% survival)
- Persisters ([7]; strain CJN698): ++ (0.1-1% survival)
- Persisters ([7]; strain CJN702): ++ (0.1-1% survival)
- Persisters ([7]; strain CKY136): +++ (1-2% survival)
- Persisters ([7]; strain CKY138): ++ (0.1-1% survival)
- Persisters ([7]; strain CKY357): ++^2 (0.1-1% survival)
- Persisters ([7]; strain DAY185): ++ (0.1-1% survival)
- Persisters ([7]; strain DAY286): ++ (0.1-1% survival)
- Persisters ([7]; strain GKO9): ++ (0.1-1% survival)
- Persisters ([7]; strain GKO443): ++ (0.1-1% survival)
- Persisters ([7]; strain GKO798): ++ (0.1-1% survival)
- Persisters ([7]; strain GKO814): ++ (0.1-1% survival)
- Persisters ([7]; strain MC191): +++ (1-2% survival)
- Persisters ([7]; strain MC195): + (0.05-0.1% survival)
- Persisters ([7]; strain MC245): ++ (0.1-1% survival)
- shape of biofilm killing curve ([2]; 24 hrs challenge, CFU): biphasic killing
- biofilm cells invulnerable to the drug (persisters) ([2]; higher concentrations, 24 hrs challenge): More than 1%
